Source: PMC9030691, “Toxicokinetics of β-Amanitin in Mice and In Vitro Drug–Drug Interaction Potential” (Pharmaceutics, 2022)
Several values for one entry are separate records, joined by “and”; a condition that tells them apart may be missing. Identical values can stand only once. Like-named read-outs stand apart in the source and are kept apart here.

Key:
[1] = Toxicokinetics after intravenous injection in mice; type: in vivo; conditions: male ICR mice; for MRT / Vd / clearance / half-life / AUC(0-inf) / AUC(0-t) / C0: mouse, mean ± SD; for MRT: AUMC/AUC; for Vd: CLxMRT, read-out: Vss; for clearance: Dose/AUC; for half-life: plasma elimination half-life; for AUC(0-inf) / AUC(0-t) / C0: LC-HRMS, non-compartmental
Method: The Institutional Animal Care and Use Committee of the Catholic University of Korea (approval number, CUK-IACUC-2021-004; approval date, 21 March 2021) approved the study protocol. Male ICR mice (8 weeks of age, 27.4 ± 2.3 g) were purchased from Orient Bio Inc. (Seongnam, Korea). Mice were kept in plastic cages with unlimited access to a standard mouse diet (Orient Bio) and water before the experiments. For oral administration, mice were fasted for at least 12 h but allowed free access to water.
β-amanitin was dissolved in water and administered by iv bolus injection into the tail vein of mice at doses of 0.2 (n = 8), 0.4 (n = 6), and 0.8 (n = 7) mg/kg. Blood samples (approximately 15 μL) were collected from the retro-orbital plexus under light anesthesia with isoflurane at 0.033, 0.083, 0.25, 0.5, 0.75, 1, 1.5, 2, 3, 4, 6, and 8 h after drug administration.
(§1) Concentrations of β-amanitin in biological samples were evaluated following our previous methodology. The standard calibration curves for β-amanitin in mouse plasma ranged from 0.5 to 500 ng/mL and were linear, with a correlation coefficient of 0.9952. The inter- and intra-day accuracy and precision fell within the acceptance criteria (3.1–14.6% of coefficients of variation (CVs) and 92.5–115.0% of accuracy). The extraction recovery and matrix effect of this analytical method were 82.8–88.9% and 93.0–98.6%.
An aliquot (5 μL) of plasma sample was mixed with 15 μL of 4′-hydroxydiclofenac (internal standard (IS), 5 ng/mL) in methanol and vortexed for 2 min. The mixture was centrifuged at 13,000× g at 4 °C for 5 min, and the supernatant was then transferred to an autosampler vial. An aliquot (5 μL) was injected into the LC-HRMS system for analysis.
The toxicokinetic parameters of β-amanitin were analyzed by non-compartmental analyses (WinNonlin, Pharsight; Mountain View, CA, USA) (Table 1). Data were expressed as mean ± standard deviations (SD). Comparisons of data between groups were performed using one-way ANOVA or Student t-test. Values of p < 0.05 were considered statistically significant.

in vivo = type: in vivo; conditions: male ICR mice, n = 4; for AUClast, brain: brain homogenate; for AUClast, heart: heart homogenate; for AUClast, kidney: kidney homogenate; for AUClast, liver: liver homogenate; for AUClast, lung: lung homogenate; for AUClast, spleen: spleen homogenate; for AUC(0-t): mouse, in vivo, plasma, read-out: AUClast, plasma (converted)
Method: Male mice fasted for 12 h with free access to water. Blood, brain, liver, kidney, heart, lung, stomach, intestine, and spleen were collected at 0.5, 1, 2, and 4 h after iv (0.8 mg/kg) injection or at 0.5, 1, 3, and 6 h after oral (10 mg/kg) administration of β-amanitin (n = 4 at each time point). Plasma samples (5 μL each) were harvested by centrifugation at 13,000× g for 3 min at 4 °C. Tissue samples were washed with cold normal saline, weighed, and stored at −80 °C until analysis.
as §1
Each tissue and feces sample was homogenized in water (1:3, w/v). In total, 50 μL aliquots of urine, tissue homogenates, or feces homogenates were mixed with 150 μL of 4′-hydroxydiclofenac solution (IS, 5 ng/mL in methanol). The other steps were as described for plasma sample preparation.
Toxicokinetics of β-Amanitin in Mice and In Vitro Drug–Drug
Young Yoon Bang, Im-Sook Song, Min Seo Lee, Chang Ho Lim, Yong-Yeon Cho, Joo Young Lee, Han Chang Kang […]
1. Liquid chromatography-high resolution mass spectrometry (LC-HRMS) of β-amani-tin in various tissue samples
Blood, brain, liver, kidney, heart, lung, stomach, intestine, and spleen tissues were collected, washed with cold normal saline, and weighted. Tissue samples were homoge-nized in water (1:3, w/v) and 50 μL aliquots of tissue homogenates were mixed with 150 μL of 4’-hydroxydiclofenac solution (IS, 5 ng/mL in methanol) and vortexed for 2 min. The mixture was centrifuged at 13,000 rpm at 4 °C for 5 min, and the supernatant was then transferred to an autosampler vial. An aliquot (5 μL) was injected into the LC-HRMS sys-tem for analysis, according to the previous methods. The standard calibration curves for β-amanitin in various tissue homogenates were prepared individually using the re-spective blank tissue homogenates. Each calibration standard curve was validated using the quality control (QC) samples.
As results, the standard calibration curves for β-amanitin in various tissue homoge- […]
the quality control samples prepared in various tissue homogenates were all in acceptance criteria (Supplementary Table 1).
Table S1. Concentration ranges, representative regression equation, and correlation coefficients of the calibration curves and precision (coefficient of variation, CV) and accuracy values for β-amanitin […]
Tissue Concentration Representative regression Correlation range (ng/g tissue) equation coefficient QC (ng/g tissue) Intra-day (n = 5) Accuracy (%) CV (%) […]

[2] = plasma, iv bolus 0.2 mg/kg, n = 8
[3] = plasma, iv bolus 0.4 mg/kg, n = 6
[4] = plasma, iv bolus 0.8 mg/kg, n = 7
[5] = iv bolus 0.2 mg/kg, plasma, n = 8
[6] = iv bolus 0.4 mg/kg, plasma, n = 6
[7] = iv bolus 0.8 mg/kg, plasma, n = 7
[8] = iv 0.8 mg/kg, sampled 0.5, 1, 2, 4 h, LC-HRMS, mean ± SD
[9] = po 10 mg/kg, sampled 0.5, 1, 3, 6 h, LC-HRMS, mean ± SD

Question: What does the source list for `CC[C@H](C)[C@@H]1NC(=O)CNC(=O)[C@@H]2Cc3c([nH]c4cc(O)ccc34)[S@+]([O-])C[C@H](NC(=O)CNC1=O)C(=O)N[C@@H](CC(=O)O)C(=O)N1C[C@H](O)C[C@H]1C(=O)N[C@@H]([C@@H](C)[C@@H](O)CO)C(=O)N2` [β-amanitin]?
Answer: t1/2, range over the iv doses ([1]; iv 0.2, 0.4 and 0.8 mg/kg, plasma, range of the dose-group means): 18.3–33.6 min and 18.3~33.6 min; MRT [1, 2]: 22.8 min; Vd [1, 2]: 0.359 ± 0.0855 L/kg; clearance [1, 2]: 15.3 ± 2.5 mL/min/kg; MRT [1, 3]: 22.4 min; Vd [1, 3]: 0.366 ± 0.061 L/kg; clearance [1, 3]: 16.2 ± 2.4 mL/min/kg; MRT [1, 4]: 20.7 min; Vd [1, 4]: 0.39 ± 0.0771 L/kg; clearance [1, 4]: 18.8 ± 6 mL/min/kg; half-life ([1]; iv bolus 0.2 mg/kg, n = 8): 21.8 ± 8.3 min; AUC(0-inf) [1, 5]: 223 ng·h/mL; AUC(0-t) [1, 5]: 222 ng·h/mL; half-life ([1]; iv bolus 0.4 mg/kg, n = 6): 18.3 ± 3.1 min; AUC(0-inf) [1, 6]: 421 ng·h/mL; AUC(0-t) [1, 6]: 420 ng·h/mL; half-life ([1]; iv bolus 0.8 mg/kg, n = 7): 33.6 ± 22.4 min; AUC(0-inf) [1, 7]: 771 ng·h/mL; AUC(0-t) [1, 7]: 769 ng·h/mL; C0 ([1]; iv bolus (tail vein) 0.2 mg/kg in water, plasma, n = 8): 712 ± 182 ng/mL; C0 ([1]; iv bolus (tail vein) 0.4 mg/kg in water, plasma, n = 6): 1440 ± 324 ng/mL; C0 ([1]; iv bolus (tail vein) 0.8 mg/kg in water, plasma, n = 7): 3250 ± 904 ng/mL; AUClast, brain (in vivo; iv 0.8 mg/kg, sampled 0.5, 1, 2, 4 h, LC-HRMS): -; AUClast, heart (in vivo; [8]): 13,397 ± 908 ng⋅min/g; AUClast, kidney (in vivo; [8]): 142,023 ± 7510 ng⋅min/g; AUClast, liver (in vivo; [8]): 25,780 ± 2440 ng⋅min/g; AUClast, lung (in vivo; [8]): 35,970 ± 3070 ng⋅min/g; Tissue to plasma (AUC) ratio, heart (in vivo; iv 0.8 mg/kg): 0.2; Tissue to plasma (AUC) ratio, liver (in vivo; iv 0.8 mg/kg): 0.5; Tissue to plasma (AUC) ratio, lung (in vivo; iv 0.8 mg/kg): 0.7; Tissue to plasma (AUC) ratio, kidney (in vivo; iv 0.8 mg/kg, 0.8 mg/kg): 2.6; Tissue to plasma (AUC) ratio, spleen (in vivo; iv 0.8 mg/kg, 0.8 mg/kg): 2.5; AUClast, spleen (in vivo; [8]): 137,855 ± 11,949 ng⋅min/g; AUClast, brain (in vivo; po 10 mg/kg, sampled 0.5, 1, 3, 6 h, LC-HRMS): -; AUClast, heart (in vivo; [9]): 12,563 ± 2696 ng⋅min/g; AUClast, intestine (in vivo; po 10 mg/kg, intestine homogenate, sampled 0.5, 1, 3, 6 h, LC-HRMS, mean ± SD): 2,066,298 ± 492,689 ng⋅min/g; AUClast, kidney (in vivo; [9]): 158,677 ± 84,620 ng⋅min/g; AUClast, liver (in vivo; [9]): 12,665 ± 11,731 ng⋅min/g; AUClast, lung (in vivo; [9]): 37,831 ± 11,434 ng⋅min/g; Tissue to plasma (AUC) ratio, heart (in vivo; po 10 mg/kg): 0.5; Tissue to plasma (AUC) ratio, intestine (in vivo; po 10 mg/kg): 87.3; Tissue to plasma (AUC) ratio, liver (in vivo; po 10 mg/kg): 0.5; Tissue to plasma (AUC) ratio, lung (in vivo; po 10 mg/kg): 1.6; Tissue to plasma (AUC) ratio, spleen (in vivo; po 10 mg/kg): 1.8; Tissue to plasma (AUC) ratio, stomach (in vivo; po 10 mg/kg): 28.8; AUClast, spleen (in vivo; [9]): 42,409 ± 33,867 ng⋅min/g; AUClast, stomach (in vivo; po 10 mg/kg, stomach homogenate, sampled 0.5, 1, 3, 6 h, LC-HRMS, mean ± SD): 680,749 ± 137,691 ng⋅min/g; AUC(0-t) (in vivo; [8]): 910 ng·h/mL; AUC(0-t) (in vivo; [9]): 394 ng·h/mL
